In assay [1] the target is T1, purified human recombinant MTH1 (human MTH1, residues 42-197) (Homo sapiens, UniProt P36639).
T1 construct: human MTH1, residues 42-197, Uniprot-ID: P36639, expressed in E. coli; made in house; host or cells: E. coli
The assay can be described thus: MTH1 enzymatic assay (luminescence-based, PPiLight). The format is biochemical. As to conditions: 6 μM 8-oxo-dGTP, Table 1, grouped. The protocol:
The IC50 value was determined by a MTH1 enzymatic assay. The assay comprises the principal steps of incubating a mixture of MTH1, the compound in question at different concentrations and 8-oxo-2′-deoxyguanosine-5′-triphosphate (8-oxo-dGTP) in assay buffer. Nucleotide triphosphate hydrolysis by MTH1, i.e. decomposition of 8-oxo-2′-deoxyguanosine-5′-triphosphate, produces 8-oxo-2′-deoxyguanosine-5′-monophosphate (8-oxo-dGMP) and pyrophosphate (PPi). The amount of generated pyrophosphate (PPi) is then measured by a bioluminescent reaction. In detail: The MTH1 (human mutT homologue 1) enzymatic assay is performed as a luminescence-based 384-well assay. […] The assay buffer contains 100 mM Tris-acetate pH 7.5, 40 mM NaCl, 10 mM Mg(OAc)2, 0.005% Tween 20 and 2 mM dithiothreitol (DTT). […] Then, in a second step, the substrate 8-oxo-dGTP is added and the reaction mixture is incubated for 30 minutes at 22° C. The pharmacologically relevant assay volume is 5 PI. The final concentrations in the assay during incubation of the reaction mixture are 0.1-0.2 nM, typically 0.1 nM, MTH1 and 6 μM 8-oxo-dGTP. After incubation of the reaction mixture, the generation of pyrophosphate (PPi) as a result of nucleotide triphosphate (8-oxo-dGTP) hydrolysis by MTH1 is detected using the PPiLight inorganic pyrophosphate assay kit (Lonza) (third step). 2 to 5 μl, such as 3 to 5 μl, typically 3 or 4 μl, for instance 4 μl, of a 1:1 mixture of PPiLight converting reagent (AMP) and PPiLight detection reagent are added to the reaction mixture. In the presence of pyrophosphate, the detection reagent catalyzes the conversion of AMP to ATP. Luciferase then produces light from the newly formed ATP and luciferin. The amount of light produced is directly proportional to the amount of PPi in the sample. Following signal development for 1 h the plates are analysed in an EnVision (PerkinElmer) microplate reader using the ultra sensitive luminescence option. Data are processed employing the Genedata Screener software. In particular, IC50 values are determined in the usual manner (using the Hill Equation) by fitting a dose-response curve to the data points using nonlinear regression analysis.
Hill Equation: Y=S0+(Sinf−S0)/(1+(10^logIC50/10^c)^n); Y: luminescence signal (response), S0: activity level at zero concentration of test compound, Sinf=activity level at infinite concentration, Hill coefficient n=measure of the slope at IC50, c=concentration in logarithmic units corresponding to the values on the x-axis of the dose response curve plot

Assay [2] concerns the target T2, humanMTH1 (aminoacids 42 to 197) (Homo sapiens, UniProt P36639).
T2 construct: humanMTH1 (aminoacids 42 to 197); His tag at the N-terminus; purchased Abnova ab99390; host or cells: E. coli
Briefly: Binding affinities and kinetics on MTH1 surfaces by surface plasmon resonance (SPR). As to conditions: SPR, Biacore4000, 25° C.; Table 1, grouped; read-out: KD IC50. The protocol: The SPR experiments were performed using a Biacore4000 instrument. […] HumanMTH1 was immobilized on Biacore CM5 chips at 25° C. and a flow rate of 10 μL/min using amine coupling at pH 5.5 and in presence of 1 μM MSC2567771B-1 according to Biacore's standard protocol. MTH1 was applied at a concentration of 10 μg/mL and depending on the duration of the injection time immobilization levels between 500 and 2,000 RU were obtained. Sample compounds were applied in form of titration series with a doubling of concentration at each subsequent injection. In general, 10 concentrations were injected covering a dilution range of 500 fold. Before and after each of these titration series the binding capability of the surface was controlled by the injection of the positive control S-Crizotinib at a fixed concentration of 2 μM. Kinetic titration experiments were performed at 25° C. with a flow rate of 30 μL/min, a sample contact time of 90 sec and a dissociation time of 420 sec in running buffer (20 mM Tris-HCl (Tris(hydroxymethyl)-aminomethane HCl) pH 7.40, 150 mM NaCl, 5 mM MgCl2, 1 mM DTT (dithiothreitol), 0.1 mM EGTA (ethylene glycol tetraacetic acid), 0.05% Tween 20) containing 2% DMSO (dimethyl sulfoxide). Buffer injections identical to the sample injections were executed at the beginning of the successive series for the purpose of double referencing. Solvent correction cycles (eight correction points, 1.4%-2.8% DMSO) were run at the same intervals. For surface conditioning ten start-up cycles (buffer injections) were run. Data points were collected at a sample rate of 10 Hz.
Data sets were processed and analyzed using the software Biacore4000 Evaluation, version 1.0. Solvent corrected and double-referenced association and dissociation phase data were fitted to a simple 1:1 interaction model with mass transport limitations.
Measured values are indicated as KD IC50 in the Table below.

As a reminder, the IC50 is the point on the concentration scale where inhibition reaches its midpoint. By Kd is commonly meant a measure of binding affinity in units of concentration.

For the compound `CNc1cc(N2CCC[C@](O)(c3ccccc3)C2)nc(N)n1` (single isomer, unassigned) [Example 91], the IC50 in assay [1] fell in the range of 1 to 100 nM. The dissociation constant Kd in assay [2] is 1 to 100 nM.

As to `CNc1cc(N2CCCCC2Cc2ccccc2OC)nc(N)n1` (single isomer, unassigned) [Example 107], the concentration for half-maximal inhibition (IC50) in assay [1] fell in the range of 1 to 100 nM. Besides, in assay [2], the Kd fell in the range of 1 to 100 nM.

For the compound `C[C@H]1C(c2ccccc2)CCN1c1cc(NC2CC2)nc(N)n1` (stereo in doubt) [Example 54, N4-Cyclopropyl-6-((2S,3R)-2-methyl-3-phenyl-pyrrolidin-1-yl)-pyrimidine-2,4-diamine], in assay [1], the IC50 lay in the range of 1 to 100 nM. The dissociation constant Kd in assay [2] fell in the range of 1 to 100 nM.

For the compound `C[C@H]1[C@H](c2ccccc2)CCN1c1cc(NC2CC2)nc(N)n1` (stereo in doubt) [Example 55, N4-Cyclopropyl-6-((2S,3S)-2-methyl-3-phenyl-pyrrolidin-1-yl)-pyrimidine-2,4-diamine], the IC50 in assay [1] was 1 to 100 nM. In addition, in assay [2], the equilibrium dissociation constant (Kd) was in the range of 1 to 100 nM.

Consider `C[C@@H]1[C@H](c2ccccc2)CCN1c1cc(NC2CC2)nc(N)n1` (stereo in doubt) [Example 56, N4-Cyclopropyl-6-((2R,3S)-2-methyl-3-phenyl-pyrrolidin-1-yl)-pyrimidine-2,4-diamine], for which the concentration for half-maximal inhibition (IC50) in assay [1] was in the range of 1 to 100 nM. Further, in assay [2], the Kd fell in the range of 1 to 100 nM.

`C[C@@H]1C(c2ccccc2)CCN1c1cc(NC2CC2)nc(N)n1` (stereo in doubt) [Example 57, N4-Cyclopropyl-6-((2R,3R)-2-methyl-3-phenyl-pyrrolidin-1-yl)-pyrimidine-2,4-diamine]: the IC50 in assay [1] is 1 to 100 nM. In addition, the Kd in assay [2] lay within 1 to 100 nM.

With `Nc1nc(NC2CC2)cc(N2CC[C@@H](O)C2)n1` [Example 29, (R)-1-(2-Amino-6-cyclopropylamino-pyrimidin-4-yl)-pyrrolidin-3-ol], the IC50 in assay [1] lay within 1 to 100 nM. Besides, the Kd in assay [2] fell in the range of 1 to 100 nM.

For the compound `Nc1nc(NC2CC2)cc(N2CCCC2c2ccccc2)n1` (stereo not drawn) [Example 30, N4-Cyclopropyl-6-(2-phenyl-pyrrolidin-1-yl)-pyrimidine-2,4-diamine], the 50% inhibitory concentration (IC50) in assay [1] is 1 to 100 nM. The Kd in assay [2] lay in the range of 1 to 100 nM.

Take `CC1CC2CCCCC2N1c1cc(NC2CC2)nc(N)n1` (stereo not drawn) [Example 31, N4-Cyclopropyl-6-(2-methyl-octahydro-indol-1-yl)-pyrimidine-2,4-diamine]: the concentration for half-maximal inhibition (IC50) in assay [1] was 1 to 100 nM. Besides, the Kd in assay [2] was 1 to 100 nM.

Regarding `Nc1nc(NC2CC2)cc(N2CCC(O)(c3ccccc3)C2)n1` (stereo not drawn) [Example 32, 1-(2-Amino-6-cyclopropylamino-pyrimidin-4-yl)-3-phenyl-pyrrolidin-3-ol], in assay [1], the IC50 is 1 to 100 nM. Besides, the Kd in assay [2] was 1 to 100 nM.

Take `CC1CCCN1c1cc(NC2CC2)nc(N)n1` (stereo not drawn) [Example 33, N4-Cyclopropyl-6-(2-methyl-pyrrolidin-1-yl)-pyrimidine-2,4-diamine]: in assay [1], the IC50 fell in the range of 1 to 100 nM. In addition, the Kd in assay [2] was 1 to 100 nM.

As for `Nc1nc(NC2CC2)cc(N2CCCC2Cc2ccccc2)n1` (stereo not drawn) [Example 34, 6-(2-Benzyl-pyrrolidin-1-yl)-N4-cyclopropyl-pyrimidine-2,4-diamine], in assay [1], the concentration for half-maximal inhibition (IC50) was below 1 nM. Further, the Kd in assay [2] was in the range of 1 to 100 nM.

In the case of `Nc1nc(NC2CC2)cc(N2CCc3ccccc32)n1` [Example 35, N4-Cyclopropyl-6-(2,3-dihydro-indol-1-yl)-pyrimidine-2,4-diamine], the IC50 in assay [1] lay in the range of 1 to 100 nM. Further, the dissociation constant (Kd) in assay [2] was 1 to 100 nM.

With `CC1(O)CCN(c2cc(NC3CC3)nc(N)n2)C1` (stereo not drawn) [Example 43, 1-(2-Amino-6-cyclopropylamino-pyrimidin-4-yl)-3-methyl-pyrrolidin-3-ol], the IC50 in assay [1] lay in the range of 1 to 100 nM. For the same compound, in assay [2], the Kd is 1 to 100 nM.

For the compound `Nc1nc(NC2CC2)cc(N2CC[C@H](O)C2)n1` [Example 44, (S)-1-(2-Amino-6-cyclopropylamino-pyrimidin-4-yl)-pyrrolidin-3-ol], the IC50 in assay [1] fell in the range of 1 to 100 nM. For the same compound, the dissociation constant (Kd) in assay [2] was 1 to 100 nM.

On to `C[C@@H]1C[C@H](O)CN1c1cc(NC2CC2)nc(N)n1` [Example 45, (3S,5R)-1-(2-Amino-6-cyclopropylamino-pyrimidin-4-yl)-5-methyl-pyrrolidin-3-ol], for which the IC50 in assay [1] was 1 to 100 nM. Moreover, the Kd in assay [2] fell in the range of 1 to 100 nM.

For the compound `C[C@H]1C[C@@H](O)CN1c1cc(NC2CC2)nc(N)n1` [Example 46, (3R,5S)-1-(2-Amino-6-cyclopropylamino-pyrimidin-4-yl)-5-methyl-pyrrolidin-3-ol], the IC50 in assay [1] was below 1 nM. Moreover, the Kd in assay [2] was below 1 nM.

For `Nc1nc(NC2CC2)cc(N2CCC[C@@H]2Cc2ccccc2Cl)n1` [Example 47, 6-[(R)-2-(2-Chloro-benzyl)-pyrrolidin-1-yl]-N4-cyclopropyl-pyrimidine-2,4-diamine], the half-maximal inhibitory concentration (IC50) in assay [1] was below 1 nM. Besides, the equilibrium dissociation constant (Kd) in assay [2] was below 1 nM.

For the compound `CNc1cc(N2CC(c3ccccc3)CC2=O)nc(N)n1` (stereo not drawn) [Example 96, 1-(2-Amino-6-methylamino-pyrimidin-4-yl)-4-phenyl-pyrrolidin-2-one], the half-inhibitory concentration (IC50) in assay [1] was above 100 nM.

In the case of `CNc1cc(N2C(=O)CC[C@H]2CO)nc(N)n1` [Example 99, (S)-1-(2-Amino-6-methylamino-pyrimidin-4-yl)-5-hydroxymethyl-pyrrolidin-2-one], the half-inhibitory concentration (IC50) in assay [1] was above 100 nM.

Take `CNc1cc(N2CCCC2C(C)C)nc(N)n1` (stereo not drawn) [Example 101, 6-(2-Isopropyl-pyrrolidin-1-yl)-N4-methyl-pyrimidine-2,4-diamine-formate]: in assay [1], the IC50 is below 1 nM.

For `CNc1cc(N2CCCC2C2CCCC2)nc(N)n1` (stereo not drawn) [Example 102, 6-(2-Cyclopentyl-pyrrolidin-1-yl)-N4-methyl-pyrimidine-2,4-diamine], the IC50 in assay [1] was below 1 nM.

In the case of `CNc1cc(N2CCC(c3ccccc3)C2=O)nc(N)n1` (stereo not drawn) [Example 103, 1-(2-Amino-6-methylamino-pyrimidin-4-yl)-3-phenyl-pyrrolidin-2-one], the IC50 in assay [1] was in the range of 1 to 100 nM.

With `Nc1nc(NC2CC2)cc(N2C(=O)CCC2c2ccc(Cl)cc2)n1` (stereo not drawn) [Example 104, 1-(2-Amino-6-cyclopropylamino-pyrimidin-4-yl)-5-(4-chloro-phenyl)-pyrrolidin-2-one], in assay [1], the half-maximal inhibitory concentration (IC50) is above 100 nM.

Regarding `CNc1cc(N2CCCC2c2ccsc2)nc(N)n1` (stereo not drawn) [Example 111, N4-Methyl-6-(2-thiophen-3-yl-pyrrolidin-1-yl)-pyrimidine-2,4-diamine], in assay [1], the IC50 is below 1 nM.

On to `Nc1nc(NC2CC2)cc(N2CCCC2C(=O)NCCc2ccc(S(=O)(=O)F)cc2)n1` (stereo not drawn) [Example 119, 4-(2-{[1-(2-Amino-6-cyclopropylamino-pyrimidin-4-yl)-pyrrolidine-2-carbonyl]-amino}-ethyl)-benzenesulfonyl fluoride], for which the concentration for half-maximal inhibition (IC50) in assay [1] lay in the range of 1 to 100 nM.

Take `Cc1ccc(CCNc2cc(N3CCC(F)(F)C3)nc(N)n2)cc1` [Example 145, 6-(3,3-Difluoro-pyrrolidin-1-yl)-N4-(2-p-tolyl-ethyl)-pyrimidine-2,4-diamine-formiate]: in assay [1], the IC50 lay in the range of 1 to 100 nM.

(Values after patent publication US20180118721A1, “PYRIMIDINE DERIVATIVES” (Merck Patent GmbH, priority 2015, published 2018).)
